Experiments:
Assay type in all cases: biochemical
MAPK1 = assay: Other kinases, inhibition at 1 μM (Table 3)
Procedure: (§1) The Aurora and other kinase assays described here were performed on two Caliper Life Sciences systems, the LC3000 and the Desktop Profiler. These provide data on enzyme activity via measurement of the relative amounts of phosphorylated or unphosphorylated fluorescently labelled substrate peptide at the end of an enzymatic reaction. These different states of peptide are resolved by applying a potential difference across the sample. The presence of a charged phosphate group on the product (as opposed to the substrate) causes a different peptide mobility between the two peptides. This is visualized by excitation of a fluorescent label on the substrate and product peptides and represented as peaks within the analysis software.
(§2) The Desktop Profiler utilizes the same principal as the LC 3000 for calculating percentage conversion of a substrate to product. Caliper Life Sciences provided proprietary flash frozen pre-made 384 well plates containing selected kinases. Each column in the 384 well plate contained a particular selected kinase. A second plate, the ‘substrate plate’ contained a mix of fluorescently labeled peptide substrate and ATP. These were arranged in columns so that transfer for substrate plate to enzyme plate provided the correct enzyme with the correct substrate/ATP concentration.
(§3) Compounds were added to a thawed enzyme plate in the desired format, in single concentrations. Reactions were initiated by transfer of the ubstrate/ATP mix from the substrate plate. The enzyme plate was incubated for 90 mins at 25 °C. The reaction was stopped by addition of […] of Stop Buffer (100 mM HEPES pH 7.5, 0.015% Brij-35, 10 mM EDTA (Sigma, E7889)).
(§4) Plates were read in a manner identical to that of the LC3000, and the ratio between substrate and product peaks provided the activity of the enzyme in that well. This was best represented by a plate heat map which colors each well by percent inhibition as compared to positive and negative controls (no inhibitors and no ATP respectively).

YES1 = biological target: T1, YES1 (Homo sapiens, UniProt P07947); assay: Other kinases, inhibition at 1 μM (Table 3)
T1 construct: purchased Caliper Life Sciences
Procedure: as §1, §2, §3, §4

PRK2 = biological target: T2, PRK2 (Homo sapiens, UniProt Q16513); assay: Other kinases, inhibition at 1 μM (Table 3)
T2 construct: purchased Caliper Life Sciences
Procedure: as §1, §2, §3, §4

EphB3 = biological target: T3, EphB3 (Homo sapiens, UniProt P54753); assay: Other kinases, inhibition at 1 μM (Table 3)
T3 construct: purchased Caliper Life Sciences
Procedure: as §1, §2, §3, §4

PIM-2 = biological target: T4, PIM-2 (Homo sapiens, UniProt Q9P1W9); assay: Other kinases, inhibition at 1 μM (Table 3)
T4 construct: purchased Caliper Life Sciences
Procedure: as §1, §2, §3, §4

MAPKAP-K1-beta = biological target: T5, MAPKAP-K1-beta (Homo sapiens, UniProt P51812); assay: Other kinases, inhibition at 1 μM (Table 3)
T5 construct: purchased Caliper Life Sciences
Procedure: as §1, §2, §3, §4

CHK2 = biological target: T6, CHK2 (Homo sapiens, UniProt O96017); assay: Other kinases, inhibition at 1 μM (Table 3)
T6 construct: purchased Caliper Life Sciences
Procedure: as §1, §2, §3, §4

MSK1 = biological target: T7, MSK1 (Homo sapiens, UniProt O75582); assay: Other kinases, inhibition at 1 μM (Table 3)
T7 construct: purchased Caliper Life Sciences
Procedure: as §1, §2, §3, §4

PRAK = biological target: T8, PRAK (Homo sapiens, UniProt Q8IW41); assay: Other kinases, inhibition at 1 μM (Table 3)
T8 construct: purchased Caliper Life Sciences
Procedure: as §1, §2, §3, §4

Pim-3 = biological target: T9, Pim-3 (Homo sapiens, UniProt Q86V86); assay: Other kinases, inhibition at 1 μM (Table 3)
T9 construct: purchased Caliper Life Sciences
Procedure: as §1, §2, §3, §4

IKK-epsilon = biological target: T10, IKK-epsilon (Homo sapiens, UniProt Q14164); assay: Other kinases, inhibition at 1 μM (Table 3)
T10 construct: purchased Caliper Life Sciences
Procedure: as §1, §2, §3, §4

MAPK2 = biological target: T11, MAPK2 (Homo sapiens, UniProt P28482); assay: Other kinases, inhibition at 1 μM (Table 3)
T11 construct: purchased Caliper Life Sciences
Procedure: as §1, §2, §3, §4

IKK-beta = biological target: T12, IKK-beta (Homo sapiens, UniProt O14920); assay: Other kinases, inhibition at 1 μM (Table 3)
T12 construct: purchased Caliper Life Sciences
Procedure: as §1, §2, §3, §4

DYRK3 = biological target: T13, DYRK3 (Homo sapiens, UniProt O43781); assay: Other kinases, inhibition at 1 μM (Table 3)
T13 construct: purchased Caliper Life Sciences
Procedure: as §1, §2, §3, §4

CK1-delta = biological target: T14, CK1-delta (Homo sapiens, UniProt P48730); assay: Other kinases, inhibition at 1 μM (Table 3)
T14 construct: purchased Caliper Life Sciences
Procedure: as §1, §2, §3, §4

IRR = biological target: T15, IRR (Homo sapiens, UniProt P14616); assay: Other kinases, inhibition at 1 μM (Table 3)
T15 construct: purchased Caliper Life Sciences
Procedure: as §1, §2, §3, §4

MELK = biological target: T16, MELK (Homo sapiens, UniProt Q14680); assay: Other kinases, inhibition at 1 μM (Table 3)
T16 construct: purchased Caliper Life Sciences
Procedure: as §1, §2, §3, §4

MAPK8 = assay: Other kinases, inhibition at 1 μM (Table 3)
Procedure: as §1, §2, §3, §4

PDK1 = biological target: T17, PDK1 (Homo sapiens, UniProt O15530); assay: Other kinases, inhibition at 1 μM (Table 3)
T17 construct: purchased Caliper Life Sciences
Procedure: as §1, §2, §3, §4

MAPKAP-K2 = biological target: T18, MAPKAP-K2 (Homo sapiens, UniProt P49137); assay: Other kinases, inhibition at 1 μM (Table 3)
T18 construct: purchased Caliper Life Sciences
Procedure: as §1, §2, §3, §4

Nek2a = biological target: T19, Nek2a (Homo sapiens, UniProt P51955); assay: Other kinases, inhibition at 1 μM (Table 3)
T19 construct: purchased Caliper Life Sciences
Procedure: as §1, §2, §3, §4

MARK3 = biological target: T20, MARK3 (Homo sapiens, UniProt P27448); assay: Other kinases, inhibition at 1 μM (Table 3)
T20 construct: purchased Caliper Life Sciences
Procedure: as §1, §2, §3, §4

Pim-1 = biological target: T21, Pim-1 (Homo sapiens, UniProt P11309); assay: Other kinases, inhibition at 1 μM (Table 3)
T21 construct: purchased Caliper Life Sciences
Procedure: as §1, §2, §3, §4

CK2 = assay: Other kinases, inhibition at 1 μM (Table 3)
Procedure: as §1, §2, §3, §4

SRPK1 = biological target: T22, SRPK1 (Homo sapiens, UniProt Q96SB4); assay: Other kinases, inhibition at 1 μM (Table 3)
T22 construct: purchased Caliper Life Sciences
Procedure: as §1, §2, §3, §4

MST2 = biological target: T23, MST2 (Homo sapiens, UniProt Q13188); assay: Other kinases, inhibition at 1 μM (Table 3)
T23 construct: purchased Caliper Life Sciences
Procedure: as §1, §2, §3, §4

CAMKKb = biological target: T24, CAMKKb (Homo sapiens, UniProt Q96RR4); assay: Other kinases, inhibition at 1 μM (Table 3)
T24 construct: purchased Caliper Life Sciences
Procedure: as §1, §2, §3, §4

MAPKAP-K1-alpha = biological target: T25, MAPKAP-K1-alpha (Homo sapiens, UniProt Q15418); assay: Other kinases, inhibition at 1 μM (Table 3)
T25 construct: purchased Caliper Life Sciences
Procedure: as §1, §2, §3, §4

FGFR1 = biological target: T26, FGFR1 (Homo sapiens, UniProt P11362); assay: Other kinases, inhibition at 1 μM (Table 3)
T26 construct: purchased Caliper Life Sciences
Procedure: as §1, §2, §3, §4

PAK6 = biological target: T27, PAK6 (Homo sapiens, UniProt Q9NQU5); assay: Other kinases, inhibition at 1 μM (Table 3)
T27 construct: purchased Caliper Life Sciences
Procedure: as §1, §2, §3, §4

SAPK4 = biological target: T28, SAPK4 (Homo sapiens, UniProt O15264); assay: Other kinases, inhibition at 1 μM (Table 3)
T28 construct: purchased Caliper Life Sciences
Procedure: as §1, §2, §3, §4

SAPK2-beta = biological target: T29, SAPK2-beta (Homo sapiens, UniProt Q15759); assay: Other kinases, inhibition at 1 μM (Table 3)
T29 construct: purchased Caliper Life Sciences
Procedure: as §1, §2, §3, §4

FAK(h) = biological target: T30, FAK(h) (Homo sapiens, UniProt Q05397); assay: Inhibition of other kinases IC50 (Table 2)
T30 construct: purchased Caliper Life Sciences
Procedure: as §1

Pyk2(h) = biological target: T31, Pyk2(h) (Homo sapiens, UniProt Q14289); assay: Inhibition of other kinases IC50 (Table 2)
T31 construct: purchased Caliper Life Sciences
Procedure: as §1

T17 sequence (O15530 whole entry): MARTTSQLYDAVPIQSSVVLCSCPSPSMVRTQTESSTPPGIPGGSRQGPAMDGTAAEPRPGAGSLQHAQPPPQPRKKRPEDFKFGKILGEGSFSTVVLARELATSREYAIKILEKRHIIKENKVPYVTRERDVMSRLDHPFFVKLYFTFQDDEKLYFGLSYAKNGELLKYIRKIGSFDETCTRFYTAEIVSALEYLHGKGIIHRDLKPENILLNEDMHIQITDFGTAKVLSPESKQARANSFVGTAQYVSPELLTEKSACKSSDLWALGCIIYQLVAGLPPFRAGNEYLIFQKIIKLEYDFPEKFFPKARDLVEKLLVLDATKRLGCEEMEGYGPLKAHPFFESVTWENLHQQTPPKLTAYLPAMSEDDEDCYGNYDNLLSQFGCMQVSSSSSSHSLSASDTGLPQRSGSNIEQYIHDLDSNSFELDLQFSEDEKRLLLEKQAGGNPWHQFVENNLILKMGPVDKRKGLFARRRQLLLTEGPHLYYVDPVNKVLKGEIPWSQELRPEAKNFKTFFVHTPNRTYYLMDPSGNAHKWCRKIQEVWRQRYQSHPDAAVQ
T19 sequence (P51955 whole entry, species assumed): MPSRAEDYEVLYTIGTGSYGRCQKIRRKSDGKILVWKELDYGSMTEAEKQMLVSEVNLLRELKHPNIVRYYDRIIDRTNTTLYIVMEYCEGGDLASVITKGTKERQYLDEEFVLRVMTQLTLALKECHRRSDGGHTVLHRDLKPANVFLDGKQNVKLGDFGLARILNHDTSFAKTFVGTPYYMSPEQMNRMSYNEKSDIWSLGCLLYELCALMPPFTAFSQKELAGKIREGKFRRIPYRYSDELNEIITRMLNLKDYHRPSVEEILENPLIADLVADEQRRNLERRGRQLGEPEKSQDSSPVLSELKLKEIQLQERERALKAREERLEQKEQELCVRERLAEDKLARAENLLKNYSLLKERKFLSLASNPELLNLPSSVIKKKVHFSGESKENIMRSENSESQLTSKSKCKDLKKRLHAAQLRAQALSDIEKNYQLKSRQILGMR
T15 sequence (P14616 27-1297, species assumed): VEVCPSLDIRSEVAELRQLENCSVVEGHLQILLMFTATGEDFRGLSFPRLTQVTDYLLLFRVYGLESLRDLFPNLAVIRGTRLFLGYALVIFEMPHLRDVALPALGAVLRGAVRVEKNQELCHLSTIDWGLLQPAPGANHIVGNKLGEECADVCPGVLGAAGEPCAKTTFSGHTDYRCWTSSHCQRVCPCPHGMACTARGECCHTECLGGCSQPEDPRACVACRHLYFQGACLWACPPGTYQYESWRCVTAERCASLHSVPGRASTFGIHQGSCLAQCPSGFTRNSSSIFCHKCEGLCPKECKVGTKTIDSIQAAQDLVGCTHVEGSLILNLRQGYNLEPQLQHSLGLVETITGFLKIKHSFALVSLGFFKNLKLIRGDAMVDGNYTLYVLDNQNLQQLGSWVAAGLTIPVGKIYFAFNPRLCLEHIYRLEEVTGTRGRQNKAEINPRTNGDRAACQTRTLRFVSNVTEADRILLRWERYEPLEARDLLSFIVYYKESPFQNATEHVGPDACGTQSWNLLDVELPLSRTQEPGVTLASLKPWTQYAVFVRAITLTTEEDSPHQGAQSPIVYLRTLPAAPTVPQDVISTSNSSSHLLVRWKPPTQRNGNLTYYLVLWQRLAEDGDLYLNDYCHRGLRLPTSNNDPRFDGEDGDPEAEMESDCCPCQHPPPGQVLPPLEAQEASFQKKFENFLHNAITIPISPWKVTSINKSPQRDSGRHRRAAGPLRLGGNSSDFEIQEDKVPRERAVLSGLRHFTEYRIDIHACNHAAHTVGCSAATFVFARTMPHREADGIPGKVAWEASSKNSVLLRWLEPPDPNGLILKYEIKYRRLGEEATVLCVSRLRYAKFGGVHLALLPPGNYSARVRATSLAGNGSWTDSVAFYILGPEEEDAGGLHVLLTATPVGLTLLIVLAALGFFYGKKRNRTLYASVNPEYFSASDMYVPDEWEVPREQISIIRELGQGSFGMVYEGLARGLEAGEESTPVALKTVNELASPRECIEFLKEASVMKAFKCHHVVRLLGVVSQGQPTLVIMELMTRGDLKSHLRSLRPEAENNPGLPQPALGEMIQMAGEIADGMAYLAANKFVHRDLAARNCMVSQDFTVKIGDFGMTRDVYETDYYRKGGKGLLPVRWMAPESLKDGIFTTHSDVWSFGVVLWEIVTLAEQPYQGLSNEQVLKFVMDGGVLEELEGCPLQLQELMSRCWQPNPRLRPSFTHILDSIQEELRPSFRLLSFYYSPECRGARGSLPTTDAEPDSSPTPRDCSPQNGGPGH
T1 sequence (P07947 whole entry, species assumed): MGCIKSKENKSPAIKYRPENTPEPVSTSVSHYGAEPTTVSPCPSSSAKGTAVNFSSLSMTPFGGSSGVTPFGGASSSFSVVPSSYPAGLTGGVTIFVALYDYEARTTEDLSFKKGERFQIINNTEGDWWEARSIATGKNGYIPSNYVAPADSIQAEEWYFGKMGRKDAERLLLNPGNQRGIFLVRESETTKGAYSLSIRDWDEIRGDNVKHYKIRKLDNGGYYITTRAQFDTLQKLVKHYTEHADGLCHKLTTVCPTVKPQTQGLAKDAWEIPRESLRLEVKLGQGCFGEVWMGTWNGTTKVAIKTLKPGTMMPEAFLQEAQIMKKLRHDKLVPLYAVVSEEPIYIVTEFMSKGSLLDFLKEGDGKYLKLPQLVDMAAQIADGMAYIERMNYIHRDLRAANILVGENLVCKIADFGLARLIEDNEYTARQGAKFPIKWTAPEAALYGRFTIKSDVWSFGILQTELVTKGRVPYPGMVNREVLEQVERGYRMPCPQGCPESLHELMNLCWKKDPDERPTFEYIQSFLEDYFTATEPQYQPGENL
T11 sequence (P28482 whole entry): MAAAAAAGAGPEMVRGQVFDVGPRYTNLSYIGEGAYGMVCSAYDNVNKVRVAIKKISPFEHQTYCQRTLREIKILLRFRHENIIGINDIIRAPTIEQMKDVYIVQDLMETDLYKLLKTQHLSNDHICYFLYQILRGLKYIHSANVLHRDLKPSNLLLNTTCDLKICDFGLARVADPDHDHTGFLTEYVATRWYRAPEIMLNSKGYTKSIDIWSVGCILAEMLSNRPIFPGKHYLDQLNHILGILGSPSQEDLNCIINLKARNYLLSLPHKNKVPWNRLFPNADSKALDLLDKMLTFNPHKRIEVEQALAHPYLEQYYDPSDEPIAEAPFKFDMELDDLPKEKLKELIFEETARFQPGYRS
T7 sequence (O75582 whole entry, species assumed): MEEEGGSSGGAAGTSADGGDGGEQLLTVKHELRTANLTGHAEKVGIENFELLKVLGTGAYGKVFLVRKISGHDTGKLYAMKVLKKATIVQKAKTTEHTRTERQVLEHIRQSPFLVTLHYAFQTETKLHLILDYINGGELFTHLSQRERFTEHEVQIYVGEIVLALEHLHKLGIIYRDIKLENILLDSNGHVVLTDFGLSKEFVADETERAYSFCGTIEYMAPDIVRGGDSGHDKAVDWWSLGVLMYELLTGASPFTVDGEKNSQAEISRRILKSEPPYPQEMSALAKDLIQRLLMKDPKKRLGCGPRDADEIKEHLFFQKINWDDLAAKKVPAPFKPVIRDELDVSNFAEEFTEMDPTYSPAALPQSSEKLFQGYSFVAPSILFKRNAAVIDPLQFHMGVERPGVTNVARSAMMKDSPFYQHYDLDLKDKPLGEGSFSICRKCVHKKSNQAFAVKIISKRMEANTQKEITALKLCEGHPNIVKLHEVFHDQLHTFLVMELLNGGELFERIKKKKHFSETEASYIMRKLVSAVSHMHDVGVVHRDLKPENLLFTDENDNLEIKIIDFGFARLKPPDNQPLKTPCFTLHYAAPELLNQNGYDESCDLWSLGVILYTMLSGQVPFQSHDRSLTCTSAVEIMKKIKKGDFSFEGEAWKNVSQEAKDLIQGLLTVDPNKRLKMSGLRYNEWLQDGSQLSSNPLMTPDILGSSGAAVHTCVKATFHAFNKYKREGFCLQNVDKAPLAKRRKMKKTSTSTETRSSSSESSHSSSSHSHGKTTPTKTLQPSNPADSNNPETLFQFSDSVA
T21 sequence (P11309 whole entry, species assumed): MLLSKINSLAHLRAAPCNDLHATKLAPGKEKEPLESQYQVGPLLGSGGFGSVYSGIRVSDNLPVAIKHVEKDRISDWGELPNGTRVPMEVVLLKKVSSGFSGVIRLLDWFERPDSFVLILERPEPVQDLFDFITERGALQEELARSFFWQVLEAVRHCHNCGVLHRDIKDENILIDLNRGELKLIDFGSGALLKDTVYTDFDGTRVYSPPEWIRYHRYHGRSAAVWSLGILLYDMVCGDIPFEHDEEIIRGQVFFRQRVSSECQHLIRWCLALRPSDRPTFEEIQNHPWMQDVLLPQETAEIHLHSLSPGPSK
T8 sequence (Q8IW41 whole entry, species assumed): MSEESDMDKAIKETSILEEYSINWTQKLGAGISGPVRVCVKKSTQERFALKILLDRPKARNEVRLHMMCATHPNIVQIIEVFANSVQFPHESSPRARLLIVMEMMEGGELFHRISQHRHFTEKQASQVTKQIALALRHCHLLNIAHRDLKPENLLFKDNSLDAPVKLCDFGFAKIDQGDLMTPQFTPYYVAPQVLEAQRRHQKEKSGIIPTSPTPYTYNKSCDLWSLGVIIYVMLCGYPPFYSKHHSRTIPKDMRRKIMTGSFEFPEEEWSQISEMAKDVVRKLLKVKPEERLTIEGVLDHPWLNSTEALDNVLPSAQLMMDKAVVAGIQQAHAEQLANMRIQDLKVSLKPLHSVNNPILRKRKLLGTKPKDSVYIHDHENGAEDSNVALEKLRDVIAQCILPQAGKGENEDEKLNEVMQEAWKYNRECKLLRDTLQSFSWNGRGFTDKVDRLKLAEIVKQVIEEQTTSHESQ

| SMILES | % inhibition MAPK1 (MAPK1) | inhibition at 1 µM (YES1) | inhibition at 1 µM (PRK2) | inhibition at 1 µM (EphB3) | % inhibition PIM-2 (PIM-2) | % inhibition MAPKAP-K1-beta (MAPKAP-K1-beta) | % inhibition CHK2 (CHK2) | % inhibition MSK1 (MSK1) | % inhibition PRAK (PRAK) | % inhibition Pim-3 (Pim-3) | inhibition at 1 µM (IKK-epsilon) | % inhibition MAPK2 (MAPK2) | inhibition at 1 µM (IKK-beta) | inhibition at 1 µM (DYRK3) | % inhibition CK1-delta (CK1-delta) | inhibition at 1 µM (IRR) | % inhibition MELK (MELK) | % inhibition MAPK8 (MAPK8) | % inhibition PDK1 (PDK1) | % inhibition MAPKAP-K2 (MAPKAP-K2) | also measured |
| --- | --- | --- | --- | --- | --- | --- | --- | --- | --- | --- | --- | --- | --- | --- | --- | --- | --- | --- | --- | --- | --- |
| Fc1cnc2nc1NC1CCCC(C1)OC/C=C\COc1cccc(c1)N2 (single isomer, unassigned) [Example 33, (16Z)-6-fluoro-14,19-dioxa-2,4,8,26-tetraazatetracyclo[18.3.1.1˜3,7˜0.1˜9,13˜]hexacosa-1(24),3(26),4,6,16,20,22-heptaene] | 91% | 49% | 97% | 54% | 85% | 68% | 77% | 96% | 80% | 84% | 91% | 79% | 78% | 99% | 85% | 69% | 101% | 61% | 91% | 100% | % inhibition Nek2a (Nek2a): 82%; % inhibition MARK3 (MARK3): 73%; % inhibition Pim-1 (Pim-1): 65%; % inhibition CK2 (CK2): 96%; inhibition at 1 µM (SRPK1): 83%; % inhibition MST2 (MST2): 61%; % inhibition CAMKKb (CAMKKb): 81%; % inhibition MAPKAP-K1-alpha (MAPKAP-K1-alpha): 56%; inhibition at 1 µM (FGFR1): 74%; % inhibition PAK6 (PAK6): 90%; inhibition at 1 µM (SAPK4): 79%; inhibition at 1 µM (SAPK2-beta): 83% |
| NC(=O)[C@H]1[C@H]2C[C@H]3[C@H]1Nc1nc(ncc1F)Nc1cccc(c1)CSS[C@@H]3C2 [Example 10] | 78% | 9% | 43% | 4% | 70% | 19% | 12% | 77% | 84% | 63% | 75% | 90% | 82% | 78% | 92% | 72% | 36% | 9% | 73% | 88% | % inhibition Nek2a (Nek2a): 66%; % inhibition MARK3 (MARK3): 74%; % inhibition Pim-1 (Pim-1): 61%; % inhibition CK2 (CK2): 91%; inhibition at 1 µM (SRPK1): 65%; % inhibition MST2 (MST2): 8%; % inhibition CAMKKb (CAMKKb): 73%; % inhibition MAPKAP-K1-alpha (MAPKAP-K1-alpha): 12%; inhibition at 1 µM (FGFR1): 10%; % inhibition PAK6 (PAK6): 81%; inhibition at 1 µM (SAPK4): 44%; inhibition at 1 µM (SAPK2-beta): 81% |
| NC(=O)[C@H]1[C@H]2C[C@H]3[C@H]1Nc1nc(ncc1F)Nc1cccc(c1)OCCS[C@@H]3C2 [Example 20] |  |  |  |  |  |  |  |  |  |  |  |  |  |  |  |  |  |  |  |  | IC50 (FAK(h)): 101 to 1000 nM; IC50 (Pyk2(h)): 101 to 1000 nM |
